What was measured:
BK virus (BKV) = assay: Cidofovir treatment of renal transplant recipients with BKV nephropathy; BKV viral load by TaqMan QPCR; format: in vivo, human
Method: Nucleic acid was extracted from urine and plasma specimens (150 μl of urine or plasma per specimen) using the Qui Amp Viral RNA Minikit, commercially available from Qiagen, Inc. The extraction procedure was performed according to the manufacturer's instructions provided with the kit.
A BKV gene sequence from the VP-1 region was amplified by the real-time TaqMan QPCR assay using the following primers and probe. The forward BKVN primer had the sequence 5′-[…]-3′ (SEQ ID NO. 1) and a Tm of 59° C. The reverse BKVN primer had the sequence 5′-[…]-3′ (SEQ ID NO. 2) and a Tm of 59° C. The TaqMan probe had the sequence 5′-[…]-3′ (SEQ ID NO. 4) and a Tm of 68° C. The TaqMan probe was labeled at the 5′ end with a FAM dye and at the 3′ end with a TAMRA dye. […]
In order to generate a positive control, a BKV gene sequence from the VP-1 region encompassing the TaqMan primer amplicon was cloned in a vector using the pGEM-T PCR cloning system (Promega, Madison, Wis.). The above sequence was then quantitated using UV spectrophotometry in order to calculate the copy number for a master standard positive control. A 10× serial dilution of standard positive control, with copies ranging from 10^7 to 10^10 was made and used to generate a standard curve with each quantitative assay. […] The urinary viral load was expressed as BKV copies/μl of urine. The plasma viral load was expressed as BKV copies/μl. […]

[1] = Serum creatinine of cidofovir-treated BKVN renal transplant patients; format: in vivo, human; design: Current Creatinine: unit: mg/dl
Method: Four patients were treated with cidofovir at a dosage level of […], 2-3 times weekly. This is […] of the recommended dose of 5 mg/kg. In addition, cidofovir was administered without probenecid.
Subsequently, the serum creatinine progressively rose to 8 mg/dl. At this point, a combination of IV IgG, high dose steroids and a single dose of cidofovir (1 mg/kg IV without probenecid) was administered.

[2] = test system: polyoma viral DNA replication; conditions: in vitro studies; cited from earlier work
[3] = within 24 hours of administration; usual dosage 5 mg/kg; cited from earlier work
[4] = contraindicated in patients with impaired renal function; cited from earlier work
JC virus = conditions: patients, infection caused by JC virus; cited from earlier work

| SMILES | BKV in urine and blood samples by QPCR (BK virus (BKV); case report Patient #1, two months after single dose 1 mg/kg IV without probenecid, combined with IV IgG and high dose steroids) | clearance of BKV viruria, number of doses needed (BK virus (BKV); four BKVN patients, 0.25 to 1.0 mg/kg, 2-3 times weekly, without probenecid) | Current Creatinine ([1]; Patient 1, Post Urethral valve, 3 doses (20-20-40 mg)) | Current Creatinine ([1]; Patient 2, Diabetic Nephropathy, 3 doses (70-35-15 mg)) | Current Creatinine ([1]; Patient 3, Renal Dysplasia, 1 dose (20 mg)) | Current Creatinine ([1]; Patient 4, IgA Nephropathy, 4 doses (200-200-200-70 mg)) | serum creatinine after treatment ([1]; case report Patient #1, after resuming full immunosuppression, had risen to 8 mg/dl before treatment) [mg/dL] | inhibition of polyoma viral DNA replication [2] | dose excreted in the urine unchanged [3] | nephrotoxicity [4] | effect in progressive multifocal leukoencephalopathy (JC virus) |
| --- | --- | --- | --- | --- | --- | --- | --- | --- | --- | --- | --- |
| Nc1ccn(C[C@@H](CO)OCP(=O)(O)O)c(=O)n1 [cidofovir, (S)-1-(3-hydroxy-2-phosphonylmethoxypropyl) cytosine] | Neither sample was amplifiable for BKV | 2-4 doses | 1.8 | 3.2 | 1.7 | 3 | 1.7 to 1.9 | inhibit polyoma viral DNA replication | 75-80% | nephrotoxic | reportedly effective |
| Nc1ccn([C@@H]2O[C@H](CO)[C@@H](O)[C@@H]2O)c(=O)n1 [cytosine arabinoside] | – | – | – | – | – | – | – | inhibit polyoma viral DNA replication | – | – | – |
